Experimental data taken from PMC7486443, “Generation of Phenothiazine with Potent Anti-TLK1 Activity for Prostate Cancer Therapy” (iScience, 2020).

Legend:
Experiment in all cases: biochemical
Set-up in all cases: DiscoverX KINOMEscan scanMAX competition binding panel, single concentration, percent of control; remaining binding: dose or concentration left out as unconfirmed
Conditions in all cases: KINOMEscan binding, percent of control; read-out: Table S4_SCANMAX REPORT - related to Fig. 1 / Percent Control
[1] = molecular target: T1, CTK (Homo sapiens, UniProt P42679)
T1 construct: gene MATK
Excerpt: (§1) Certain PTH are potent inhibitors of TLK1 ([Ronald et al., 2013]), and by inference TLK2, as these proteins must homo- and hetero-dimerize for full activation ([Mortuza et al., 2018]), in addition to being highly similar in sequence and structure, and thus similarly targetable. […] Two noteworthy observations are that PTHs are structurally different from many known ATP competitive inhibitors, and that J54 was carefully designed based on considerations reported previously for the THD—the Kinomescan has confirmed that J54 is specific to TLKs. We should point out that although PTH were the first reported inhibitors of TLKs ([Ronald et al., 2013]), other inhibitors particularly of TLK2 have since been reported ([Kim et al., 2016]), some based on structure docking ([Mortuza et al., 2018]), although neither their potency and effects in vivo nor their potential off-target effects have not been reported as they were selected from libraries of kinase inhibitors. Supplementary file mmc2.xlsx: Table S4. SCANMAX Table, Related to Figure 1 Kinomescan of J54 inhibitory activity on human kinases.

[2] = molecular target: T2, MINK (Homo sapiens, UniProt Q8N4C8)
T2 construct: gene MINK1
Excerpt: as §1

[3] = molecular target: T3, ERK3 (Homo sapiens, UniProt Q16659)
T3 construct: gene MAPK6
Excerpt: as §1

[4] = molecular target: T4, PCTK2 (Homo sapiens, UniProt Q00537)
T4 construct: gene CDK17
Excerpt: as §1

[5] = molecular target: AAK1 (Homo sapiens, UniProt Q2M2I8)
Excerpt: as §1

[6] = molecular target: IRAK1 (Homo sapiens, UniProt P51617)
Excerpt: as §1

[7] = molecular target: AXL (Homo sapiens, UniProt P30530)
Excerpt: as §1

[8] = molecular target: GRK2 (Homo sapiens, UniProt P25098)
Excerpt: as §1

[9] = molecular target: WEE2 (Homo sapiens, UniProt P0C1S8)
Excerpt: as §1

[10] = molecular target: CSNK2A1 (Homo sapiens, UniProt P68400)
Excerpt: as §1

[11] = molecular target: EGFR(G719C) (Homo sapiens, UniProt P00533, G719C)
Excerpt: as §1

[12] = molecular target: EGFR(T790M) (Homo sapiens, UniProt P00533, T790M)
Excerpt: as §1

[13] = molecular target: FGFR2 (Homo sapiens, UniProt P21802)
Excerpt: as §1

[14] = molecular target: T5, MST4 (Homo sapiens, UniProt Q9P289)
T5 construct: gene STK26
Excerpt: as §1

[15] = molecular target: EPHA3 (Homo sapiens, UniProt P29320)
Excerpt: as §1

[16] = molecular target: PRKD2 (Homo sapiens, UniProt Q9BZL6)
Excerpt: as §1

[17] = molecular target: STK36 (Homo sapiens, UniProt Q9NRP7)
Excerpt: as §1

[18] = molecular target: FES (Homo sapiens, UniProt P07332)
Excerpt: as §1

[19] = molecular target: EPHB6 (Homo sapiens, UniProt O15197)
Excerpt: as §1

T2 sequence (Q8N4C8 whole entry): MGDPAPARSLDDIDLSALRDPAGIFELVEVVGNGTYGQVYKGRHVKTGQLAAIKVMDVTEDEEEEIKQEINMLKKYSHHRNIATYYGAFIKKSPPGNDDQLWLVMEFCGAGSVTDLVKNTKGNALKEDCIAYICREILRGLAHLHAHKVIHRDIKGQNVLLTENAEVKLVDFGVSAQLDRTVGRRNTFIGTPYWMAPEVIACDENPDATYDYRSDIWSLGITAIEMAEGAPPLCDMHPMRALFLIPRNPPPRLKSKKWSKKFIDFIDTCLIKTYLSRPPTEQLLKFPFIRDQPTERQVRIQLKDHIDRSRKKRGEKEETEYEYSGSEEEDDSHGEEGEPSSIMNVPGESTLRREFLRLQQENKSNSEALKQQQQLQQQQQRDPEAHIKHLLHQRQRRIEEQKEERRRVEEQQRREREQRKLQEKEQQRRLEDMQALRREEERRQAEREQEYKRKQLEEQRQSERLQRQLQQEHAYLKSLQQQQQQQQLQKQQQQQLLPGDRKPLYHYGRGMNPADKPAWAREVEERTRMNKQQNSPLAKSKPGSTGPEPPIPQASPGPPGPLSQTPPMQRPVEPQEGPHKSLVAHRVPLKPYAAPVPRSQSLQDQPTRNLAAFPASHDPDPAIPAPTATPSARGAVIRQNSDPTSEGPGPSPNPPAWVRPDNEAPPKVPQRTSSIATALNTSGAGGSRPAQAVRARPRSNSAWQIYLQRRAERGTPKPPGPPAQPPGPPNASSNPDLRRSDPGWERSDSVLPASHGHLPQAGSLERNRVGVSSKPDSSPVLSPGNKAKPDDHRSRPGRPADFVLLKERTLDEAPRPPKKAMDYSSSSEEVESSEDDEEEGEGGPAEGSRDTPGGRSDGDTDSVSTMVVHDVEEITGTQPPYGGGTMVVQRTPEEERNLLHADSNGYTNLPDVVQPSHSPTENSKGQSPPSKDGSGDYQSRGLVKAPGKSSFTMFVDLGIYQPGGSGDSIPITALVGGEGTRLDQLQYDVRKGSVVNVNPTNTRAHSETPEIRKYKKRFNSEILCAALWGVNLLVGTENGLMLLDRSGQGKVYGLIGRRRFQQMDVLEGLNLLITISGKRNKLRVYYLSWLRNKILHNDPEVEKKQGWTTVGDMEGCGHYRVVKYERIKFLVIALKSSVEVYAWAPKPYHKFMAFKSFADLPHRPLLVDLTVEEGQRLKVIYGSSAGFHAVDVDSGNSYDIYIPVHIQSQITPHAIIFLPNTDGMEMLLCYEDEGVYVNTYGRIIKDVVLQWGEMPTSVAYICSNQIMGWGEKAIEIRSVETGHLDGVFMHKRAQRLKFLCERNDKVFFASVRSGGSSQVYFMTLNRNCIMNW
T4 sequence (Q00537 whole entry): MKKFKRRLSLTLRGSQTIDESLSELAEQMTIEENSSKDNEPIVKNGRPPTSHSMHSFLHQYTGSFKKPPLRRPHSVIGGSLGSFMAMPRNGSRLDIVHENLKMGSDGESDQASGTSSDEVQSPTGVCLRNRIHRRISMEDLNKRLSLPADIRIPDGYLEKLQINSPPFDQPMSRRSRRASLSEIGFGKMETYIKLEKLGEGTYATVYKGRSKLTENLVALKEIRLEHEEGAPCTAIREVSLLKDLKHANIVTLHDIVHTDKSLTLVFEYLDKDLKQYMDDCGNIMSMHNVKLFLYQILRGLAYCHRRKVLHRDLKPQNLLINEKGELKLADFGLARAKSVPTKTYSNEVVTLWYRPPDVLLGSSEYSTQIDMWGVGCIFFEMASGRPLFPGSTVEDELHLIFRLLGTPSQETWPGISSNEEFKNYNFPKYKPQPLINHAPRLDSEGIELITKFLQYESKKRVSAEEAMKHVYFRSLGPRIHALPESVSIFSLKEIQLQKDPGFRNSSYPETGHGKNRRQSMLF
T1 sequence (P42679 whole entry): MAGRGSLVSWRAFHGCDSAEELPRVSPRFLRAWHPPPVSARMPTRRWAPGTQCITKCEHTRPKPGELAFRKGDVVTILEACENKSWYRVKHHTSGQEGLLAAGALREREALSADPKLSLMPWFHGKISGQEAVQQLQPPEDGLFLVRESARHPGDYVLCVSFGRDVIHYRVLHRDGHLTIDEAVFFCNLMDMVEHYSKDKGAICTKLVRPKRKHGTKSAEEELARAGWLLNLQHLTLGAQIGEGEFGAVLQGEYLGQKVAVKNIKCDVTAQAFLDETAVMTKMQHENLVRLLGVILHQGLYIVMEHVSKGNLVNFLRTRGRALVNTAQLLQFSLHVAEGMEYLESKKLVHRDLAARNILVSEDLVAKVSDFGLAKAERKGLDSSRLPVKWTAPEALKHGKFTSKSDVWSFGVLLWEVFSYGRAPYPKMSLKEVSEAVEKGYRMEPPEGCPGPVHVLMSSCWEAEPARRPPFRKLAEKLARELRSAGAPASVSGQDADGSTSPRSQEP
T5 sequence (Q9P289 whole entry): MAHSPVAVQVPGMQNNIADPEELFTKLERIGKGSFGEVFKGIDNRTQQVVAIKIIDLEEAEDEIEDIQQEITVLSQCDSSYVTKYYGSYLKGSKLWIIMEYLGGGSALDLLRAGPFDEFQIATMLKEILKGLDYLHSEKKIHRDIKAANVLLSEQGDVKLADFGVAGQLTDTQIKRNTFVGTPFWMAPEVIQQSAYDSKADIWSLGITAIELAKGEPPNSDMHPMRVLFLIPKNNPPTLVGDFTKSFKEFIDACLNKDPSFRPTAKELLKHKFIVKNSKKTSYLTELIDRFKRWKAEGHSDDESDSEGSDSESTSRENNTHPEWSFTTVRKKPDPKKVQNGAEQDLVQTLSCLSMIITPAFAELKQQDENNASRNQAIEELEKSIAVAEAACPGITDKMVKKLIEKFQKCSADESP
Chain of CSNK2A1 (P68400 whole entry): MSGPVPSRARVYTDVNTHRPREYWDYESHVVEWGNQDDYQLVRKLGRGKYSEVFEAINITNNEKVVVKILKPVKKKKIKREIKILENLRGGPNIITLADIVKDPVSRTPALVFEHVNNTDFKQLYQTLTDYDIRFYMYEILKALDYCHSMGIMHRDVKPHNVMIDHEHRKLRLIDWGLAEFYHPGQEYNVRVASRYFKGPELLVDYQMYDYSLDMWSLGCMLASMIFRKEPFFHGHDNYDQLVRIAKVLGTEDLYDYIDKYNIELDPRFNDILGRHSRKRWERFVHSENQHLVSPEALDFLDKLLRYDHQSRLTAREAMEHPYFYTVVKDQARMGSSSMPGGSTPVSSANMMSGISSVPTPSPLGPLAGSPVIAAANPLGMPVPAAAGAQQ
Chain of AXL (P30530 whole entry): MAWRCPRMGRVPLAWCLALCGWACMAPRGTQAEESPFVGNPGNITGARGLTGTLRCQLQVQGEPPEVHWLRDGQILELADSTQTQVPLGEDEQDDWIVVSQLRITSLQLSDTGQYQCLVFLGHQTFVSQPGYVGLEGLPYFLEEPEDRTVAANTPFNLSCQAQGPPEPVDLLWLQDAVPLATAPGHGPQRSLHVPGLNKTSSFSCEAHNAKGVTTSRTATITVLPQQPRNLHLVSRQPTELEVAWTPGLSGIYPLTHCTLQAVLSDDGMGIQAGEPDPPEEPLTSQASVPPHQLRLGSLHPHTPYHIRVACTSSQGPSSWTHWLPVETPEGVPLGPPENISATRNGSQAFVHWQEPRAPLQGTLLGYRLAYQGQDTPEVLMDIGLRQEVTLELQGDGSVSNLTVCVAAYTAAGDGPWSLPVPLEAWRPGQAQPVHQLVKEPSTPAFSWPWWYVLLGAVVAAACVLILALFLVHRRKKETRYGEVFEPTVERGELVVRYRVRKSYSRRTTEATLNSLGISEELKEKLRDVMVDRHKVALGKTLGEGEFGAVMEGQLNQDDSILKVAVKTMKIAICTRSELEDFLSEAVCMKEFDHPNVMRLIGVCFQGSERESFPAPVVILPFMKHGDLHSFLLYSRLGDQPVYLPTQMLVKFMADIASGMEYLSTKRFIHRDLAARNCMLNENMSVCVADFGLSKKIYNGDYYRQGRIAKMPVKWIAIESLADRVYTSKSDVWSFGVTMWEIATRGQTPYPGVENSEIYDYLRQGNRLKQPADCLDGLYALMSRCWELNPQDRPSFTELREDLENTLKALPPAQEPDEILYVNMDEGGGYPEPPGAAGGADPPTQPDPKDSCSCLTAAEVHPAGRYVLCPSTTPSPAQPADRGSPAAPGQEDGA
Chain of GRK2 (P25098 whole entry): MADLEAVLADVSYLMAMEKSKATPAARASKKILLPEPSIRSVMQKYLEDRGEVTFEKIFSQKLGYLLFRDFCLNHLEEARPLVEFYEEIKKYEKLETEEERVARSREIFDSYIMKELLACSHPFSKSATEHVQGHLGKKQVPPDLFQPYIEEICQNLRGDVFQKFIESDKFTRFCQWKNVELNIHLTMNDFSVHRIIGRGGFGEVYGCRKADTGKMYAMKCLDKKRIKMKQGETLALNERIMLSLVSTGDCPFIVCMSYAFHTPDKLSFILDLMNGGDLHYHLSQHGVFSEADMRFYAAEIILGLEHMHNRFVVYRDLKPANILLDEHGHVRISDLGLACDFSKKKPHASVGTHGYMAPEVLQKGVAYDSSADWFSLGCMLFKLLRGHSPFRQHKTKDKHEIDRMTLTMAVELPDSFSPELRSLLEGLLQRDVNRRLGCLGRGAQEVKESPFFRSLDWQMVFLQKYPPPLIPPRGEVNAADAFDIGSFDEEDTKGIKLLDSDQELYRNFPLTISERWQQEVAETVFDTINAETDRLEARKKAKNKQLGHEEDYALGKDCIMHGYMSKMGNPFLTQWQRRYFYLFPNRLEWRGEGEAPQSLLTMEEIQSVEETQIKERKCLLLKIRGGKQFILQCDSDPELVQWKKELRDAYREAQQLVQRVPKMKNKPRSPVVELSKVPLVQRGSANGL

c1ccc2c(c1)Sc1ccccc1N2CCN1CCOCC1 [J54]
remaining binding [1]: 95% | remaining binding [2]: 100% | remaining binding [3]: 73% | remaining binding [4]: 100% | remaining binding [5]: 80% | remaining binding [6]: 100% | remaining binding [7]: 99% | remaining binding [8]: 93% | remaining binding [9]: 100% | remaining binding [10]: 79% | remaining binding [11]: 100% | remaining binding [12]: 96% | remaining binding [13]: 100% | remaining binding [14]: 100% | remaining binding [15]: 99% | remaining binding [16]: 95% | remaining binding [17]: 67% | remaining binding [18]: 100% | remaining binding [19]: 74%
